Laboratory results published in patent publication US20230085307A1, “PYRIDAZINONE COMPOUND AND HERBICIDE” (NISSAN CHEMICAL CORPORATION, priority 2019, published 2023).

Legend:
Japanese bulrush [1] = assay: Test Example 2: herbicidal activity, application during weed generation under submerged conditions (Table 17, symbol B); type: in vivo, Japanese bulrush (Schoenoplectus juncoides); conditions: AAH 320 g/ha; application during weed generation, submerged conditions
In short: (§1)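 Effect on each weed is rated three weeks post-treatment, using the same scoring criteria as the preceding test. Plants grow from mixed-sown seed in flooded alluvial soil (4 cm water) at 25° C. to 30° C., and are treated at one to two leaves with diluted emulsion dropped onto the water.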

Japanese bulrush [2] = assay: Test Example 1: herbicidal activity, application before weed generation under submerged conditions (Table 16, symbol B); type: in vivo, Japanese bulrush (Schoenoplectus juncoides); conditions: amount of applied herbicide 320 g/ha
In short: (§2)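 Alluvial soil was flooded to 4 cm depth, weed seeds were sown mixed and 2.5-leaf rice seedlings were transplanted. On sowing day, the compound's emulsion, diluted in water to a set dose, was applied to the water surface. Plants grew at 25–30 °C and were scored 0–5 after three weeks.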

late watergrass [3] = assay: Test Example 2: herbicidal activity, application during weed generation under submerged conditions (Table 17, symbol A); type: in vivo, late watergrass (Echinochloa oryzicola); conditions: AAH 320 g/ha; application during weed generation, submerged conditions
In short: as §1

redroot pigweed = assay: Test Example 5: herbicidal effect by foliage application, plastic box (Table 20, symbol N); type: in vivo, redroot pigweed (Amaranthus retroflexus); conditions: foliage application, 320 g/ha, three weeks after application
In short: (§3)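 Sow seeds spot-wise in sterilized diluvial soil; cover with ~1.5 cm soil. Grow 14 days in greenhouse, 25° C. to 30° C. Spray foliage with emulsion diluted to predetermined amount. Rate effect after 3 weeks.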

blackgrass [4] = assay: Test Example 4: herbicidal effect by soil treatment (Table 19, symbol J); type: in vivo, blackgrass (Alopecurus myosuroides); conditions: amount of applied herbicide 320 g/ha
In short: (§4)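 Soil-surface application: an emulsion agent diluted with water to the predetermined dose is sprayed uniformly over seeds lying under roughly 1.5 cm of sterilized diluvial soil. Boxes stay in a greenhouse at 25° C. to 30° C. Three weeks later, each species is graded on previously defined criteria.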

blackgrass [5] = assay: Test Example 5: herbicidal effect by foliage application, plastic box (Table 20, symbol J); type: in vivo, blackgrass (Alopecurus myosuroides); conditions: foliage application, 320 g/ha, three weeks after application
In short: as §3

velvetleaf = assay: Test Example 5: herbicidal effect by foliage application, plastic box (Table 20, symbol M); type: in vivo, velvetleaf (Abutilon theophrasti); conditions: foliage application, 320 g/ha, three weeks after application
In short: as §3

barnyard grass [6] = assay: Test Example 3: herbicidal effect by foliage application, Wagner pot (Table 18, symbol H); type: in vivo, barnyard grass (Echinochloa crus-galli); conditions: for herbicidal effect on barnyard grass (H): 320 g/ha
In short: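 Plants were sown in alluvial soil held under 0.1–0.5 cm standing water and grown 14 days in a greenhouse at 25–30 °C. An emulsifiable formulation, water-diluted to the set dose, was then sprayed onto the foliage, and effects were scored three weeks later using previously defined criteria.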

late watergrass [7] = assay: Test Example 1: herbicidal activity, application before weed generation under submerged conditions (Table 16, symbol A); type: in vivo, late watergrass (Echinochloa oryzicola); conditions: amount of applied herbicide 320 g/ha
In short: as §2

persian speedwell = assay: Test Example 4: herbicidal effect by soil treatment (Table 19, symbol R); type: in vivo, Persian speedwell (Veronica persica); conditions: amount of applied herbicide 320 g/ha
In short: as §4

green foxtail = assay: Test Example 4: herbicidal effect by soil treatment (Table 19, symbol G); type: in vivo, green foxtail (Setaria viridis); conditions: amount of applied herbicide 320 g/ha
In short: as §4

wild oat [8] = assay: Test Example 4: herbicidal effect by soil treatment (Table 19, symbol I); type: in vivo, wild oat (Avena fatua); conditions: amount of applied herbicide 320 g/ha
In short: as §4

Italian ryegrass [9] = assay: Test Example 5: herbicidal effect by foliage application, plastic box (Table 20, symbol K); type: in vivo, Italian ryegrass (Lolium multiflorum); conditions: foliage application, 320 g/ha, three weeks after application
In short: as §3

chickweed = assay: Test Example 4: herbicidal effect by soil treatment (Table 19, symbol P); type: in vivo, common chickweed (Stellaria media); conditions: amount of applied herbicide 320 g/ha
In short: as §4

wild oat [10] = assay: Test Example 5: herbicidal effect by foliage application, plastic box (Table 20, symbol I); type: in vivo, wild oat (Avena fatua); conditions: foliage application, 320 g/ha, three weeks after application
In short: as §3

Italian ryegrass [11] = assay: Test Example 4: herbicidal effect by soil treatment (Table 19, symbol K); type: in vivo, Italian ryegrass (Lolium multiflorum); conditions: amount of applied herbicide 320 g/ha
In short: as §4

barnyard grass [12] = assay: Test Example 4: herbicidal effect by soil treatment (Table 19, symbol H); type: in vivo, barnyard grass (Echinochloa crus-galli); conditions: amount of applied herbicide 320 g/ha
In short: as §4

Row | Compound | herbicidal effect rating, B: Japanese bulrush (Japanese bulrush [1]) | Herbicidal effect, B: Japanese bulrush (Japanese bulrush [2]) | herbicidal effect rating, A: late watergrass (late watergrass [3]) | N: redroot pigweed, herbicidal effect grade (redroot pigweed) | J: blackgrass, herbicidal effect grade (blackgrass [4]) | J: blackgrass, herbicidal effect grade (blackgrass [5]) | M: velvetleaf, herbicidal effect grade (velvetleaf) | herbicidal effect on barnyard grass (H) (barnyard grass [6]) | Herbicidal effect, A: late watergrass (late watergrass [7]) | R: persian speedwell, herbicidal effect grade (persian speedwell) | G: green foxtail, herbicidal effect grade (green foxtail) | I: wild oat, herbicidal effect grade (wild oat [8]) | K: Italian ryegrass, herbicidal effect grade (Italian ryegrass [9]) | P: chickweed, herbicidal effect grade (chickweed) | I: wild oat, herbicidal effect grade (wild oat [10]) | K: Italian ryegrass, herbicidal effect grade (Italian ryegrass [11]) | H: barnyard grass, herbicidal effect grade (barnyard grass [12]) | further results
1 | CCOc1ccc2c(-c3c(O)c(C)nn(C)c3=O)c(-c3ccc(OC)cc3)sc2c1 [3-091] | 3 (Herbicidal rate of 40% or more and less than 70%) | 4 (Herbicidal rate of 70% or more and less than 90%) | 0 (Herbicidal rate of 5% or less (almost no effect)) | 4 (Herbicidal rate of 70% or more and less than 90%) | 0 (Herbicidal rate of 5% or less (almost no effect)) | 3 (Herbicidal rate of 40% or more and less than 70%) | 4 (Herbicidal rate of 70% or more and less than 90%) | 2 (Herbicidal rate of 20% or more and less than 40%) | 0 (Herbicidal rate of 5% or less (almost no effect)) | 5 (Herbicidal rate of 90% or more (almost completely withered)) | 0 (Herbicidal rate of 5% or less (almost no effect)) | 0 (Herbicidal rate of 5% or less (almost no effect)) | 0 (Herbicidal rate of 5% or less (almost no effect)) | 4 (Herbicidal rate of 70% or more and less than 90%) | 0 (Herbicidal rate of 5% or less (almost no effect)) | 0 (Herbicidal rate of 5% or less (almost no effect)) | 0 (Herbicidal rate of 5% or less (almost no effect)) | –
2 | COc1cc(F)ccc1-c1sc2cc(F)ccc2c1-c1c(O)c(C)nn(C)c1=O [3-009] | 1 (Herbicidal rate of 5% or more and less than 20%) | 3 (Herbicidal rate of 40% or more and less than 70%) | 0 (Herbicidal rate of 5% or less (almost no effect)) | 5 (Herbicidal rate of 90% or more (almost completely withered)) | – | 5 (Herbicidal rate of 90% or more (almost completely withered)) | 5 (Herbicidal rate of 90% or more (almost completely withered)) | – | 1 (Herbicidal rate of 5% or more and less than 20%) | – | – | – | 5 (Herbicidal rate of 90% or more (almost completely withered)) | – | 5 (Herbicidal rate of 90% or more (almost completely withered)) | – | – | herbicidal effect, J: blackgrass (blackgrass [4]): 4 (Herbicidal rate of 70% or more and less than 90%); herbicidal effect on H: barnyard grass (barnyard grass [6]; amount of applied herbicide 320 g/ha): 5 (Herbicidal rate of 90% or more (almost completely withered)); herbicidal effect, R: persian speedwell (persian speedwell): 5 (Herbicidal rate of 90% or more (almost completely withered)); herbicidal effect, G: green foxtail (green foxtail): 4 (Herbicidal rate of 70% or more and less than 90%); herbicidal effect, I: wild oat (wild oat [8]): 4 (Herbicidal rate of 70% or more and less than 90%); herbicidal effect, P: chickweed (chickweed): 4 (Herbicidal rate of 70% or more and less than 90%); herbicidal effect, K: Italian ryegrass (Italian ryegrass [11]): 4 (Herbicidal rate of 70% or more and less than 90%); herbicidal effect, H: barnyard grass (barnyard grass [12]): 5 (Herbicidal rate of 90% or more (almost completely withered))
3 | COc1ccccc1-c1sc2cc(OCC3CC3)ccc2c1-c1c(O)c(C)nn(C)c1=O [3-129] | 3 (Herbicidal rate of 40% or more and less than 70%) | 5 (Herbicidal rate of 90% or more (almost completely withered)) | 3 (Herbicidal rate of 40% or more and less than 70%) | 5 (Herbicidal rate of 90% or more (almost completely withered)) | 4 (Herbicidal rate of 70% or more and less than 90%) | 5 (Herbicidal rate of 90% or more (almost completely withered)) | 4 (Herbicidal rate of 70% or more and less than 90%) | 5 (Herbicidal rate of 90% or more (almost completely withered)) | 5 (Herbicidal rate of 90% or more (almost completely withered)) | 4 (Herbicidal rate of 70% or more and less than 90%) | 5 (Herbicidal rate of 90% or more (almost completely withered)) | 1 (Herbicidal rate of 5% or more and less than 20%) | 5 (Herbicidal rate of 90% or more (almost completely withered)) | 3 (Herbicidal rate of 40% or more and less than 70%) | 3 (Herbicidal rate of 40% or more and less than 70%) | 5 (Herbicidal rate of 90% or more (almost completely withered)) | 4 (Herbicidal rate of 70% or more and less than 90%) | –
4 | COc1ccccc1-c1sc2cc(OC3CCCC3)ccc2c1-c1c(O)c(C)nn(C)c1=O [3-109] | 3 (Herbicidal rate of 40% or more and less than 70%) | 5 (Herbicidal rate of 90% or more (almost completely withered)) | 0 (Herbicidal rate of 5% or less (almost no effect)) | 5 (Herbicidal rate of 90% or more (almost completely withered)) | 0 (Herbicidal rate of 5% or less (almost no effect)) | 2 (Herbicidal rate of 20% or more and less than 40%) | 4 (Herbicidal rate of 70% or more and less than 90%) | 3 (Herbicidal rate of 40% or more and less than 70%) | 5 (Herbicidal rate of 90% or more (almost completely withered)) | 4 (Herbicidal rate of 70% or more and less than 90%) | 4 (Herbicidal rate of 70% or more and less than 90%) | 5 (Herbicidal rate of 90% or more (almost completely withered)) | 4 (Herbicidal rate of 70% or more and less than 90%) | 1 (Herbicidal rate of 5% or more and less than 20%) | 0 (Herbicidal rate of 5% or less (almost no effect)) | 4 (Herbicidal rate of 70% or more and less than 90%) | 1 (Herbicidal rate of 5% or more and less than 20%) | –
